Columns and labels:
[1] = target: BTK protein in human whole blood (Homo sapiens (Human), UniProt Q06187); experiment: Btk protein in human whole blood MSD ELISA based assay (Btk degradation); format: cell-based; conditions: human whole blood from healthy donors, 6 hours at 37° C., half maximal degradation concentration; read-out: hWB BTK DC50
Experimental: Btk protein degradation was tested using an Meso Scale Discovery-ELISA system (MSD-ELISA): (1) Test compounds were added to human whole blood; (2) human whole blood cells treated with test compounds were lysed; (3) lysed cells were treated with capture antibody, an antibody to Btk; (4) lysed cells were treated with […] to Btk; and (5) lysed cells were treated with anti-mouse antibody (tagged).
Specifically, about 80 μl of fresh human whole blood from healthy donors was transferred into each well of a 96-well V-bottom plate (Costar, Cat No.3894). Using a TECANTM D300e Digital Dispenser (Tecan)), 1:4 serially diluted compounds [(8 pt assay) in DMSO solution (final 0.2%) starting at 3 μM top concentration], were added in duplicate. Thereafter, plates were placed in a 37° C. incubator and incubated for 6 hours.
At the end of incubation, 80 μl of 2× CST lysis buffer (Cell Signaling Technology, Cat No. 9803), prepared from a 10× stock solution, was added per well to lyse the blood. Plates were then sealed with a plate sealer and the samples were frozen overnight at −80° C.
Total amount of BTK protein remaining in the blood samples after compound treatment was measured using MSD-ELISA. After thawing the frozen plates, blood lysates were mixed thoroughly and transferred to small spot high-bind MSD plates (Meso Scale Discovery, Cat No. L45XB-3) and coated with capturing antibody, rabbit anti-human BTK (D3H5) (Cell Signaling Technology, Cat No. 8547CF). Thereafter, primary detection antibody, mouse anti-human BTK monoclonal antibody, (BD Biosciences, Cat No. 611117) and secondary detection antibody, anti-mouse SULFO-TAG (Meso Scale Discovery, Cat No. R32AC-1) were added. The assay plates were read on an MSD S600 plate reader by the addition of 2× MSD read buffer (Meso Scale Discovery, R92TC-1). All reagent transfers, including blood lysis, was conducted using a Biomed i7 liquid handler. From the dose response curves, DC50 values were calculated by averaging data from duplicate experiments. and Curve fitting was done by non-linear regression using GraphPad Prism. The DC50 values are reported in Table 2 in the hWB BTK DC50 (nM) column The Dmax values represent the maximum amount of BTK degradation observed upon compound treatment compared to DMSO only treated samples. The dMax (%) values are reported in Table 2 in the hWB BTK dMax (%) column.

[2] = target: Human BTK enzyme, wild-type (Homo sapiens (Human), UniProt Q06187); experiment: BTK Screening: Btk kinase activity, electrophoretic mobility shift assay (MSA); format: biochemical; conditions: 0.5 nM BTK enzyme, 50 μM ATP, 15 minutes pre-incubation, 3 hours at 25° C.
Experimental: Btk kinase activity was measured in vitro using an electrophoretic mobility shift assay (MSA). The ability of Btk to phosphorylate a fluorescent peptide substrate (FAM-GEEPLYWSFPAKKK-NH2) was measured. The kinase reactions were assembled in a total volume of 25 μL per well in 384 well plates. The following was added to each well: compound buffer (or control); enzyme buffer; and substrate buffer, as further described below.
Specifically the following was added: (1) compound buffer or control: 5μL of 5× compound buffer [(5× compound buffer comprised of: 1× Master Buffer, X μM test compound in 5% dimethyl sulfoxide; (2× Master Buffer comprised of 200 mM HEPES, pH7.5, 0.2% BSA, and 0.02% Triton X-100)]; and (2) enzyme buffer: 10 μL of 2.5× enzyme buffer (1× Master Buffer, 12.5 mM MgCl2, 2.5 mM DTT, 25 μM sodium orthovanadate, 25 μM beta-glycerophosphate, and 1.25 nM BTK enzyme). Human BTK enzyme Nanosyn-293HEK, wild-type, available from Nanosyn, Santa Clara, CA). Enzyme and compound were pre-incubated for 15 minutes. Additionally, the following was added: (3) substrate buffer: 10 μL of 2.5× substrate buffer (1× Master Buffer, […], and 2.5 μM of the peptide substrate FAM). Each plate was incubated at 25° C. for 3 hours. The reaction was terminated by adding to each well: 45 μL of 1.55× stop buffer (1× Master Buffer and 31 mM EDTA). The final reaction mixture was as follows: 100 mM HEPES, pH7.5; 0.1% BSA; 0.01% Triton X-100; 1 mM DTT; 5 mM MgCl2; 10 μM sodium orthovanadate; 10 μM beta-glycerophosphate; 50 μM ATP; 1% dimethyl sulfoxide (from compound); 1μM fluorescent peptide substrate and 0.5 nM BTK- enzyme. The terminated reactions were analyzed using a 12 channel LABCHIP® 3000 microfluidic detection instrument (available from Caliper Life Sciences, Waltham, MA). […] As substrate and product peptides were separated, two peaks of fluorescence were observed. Change in the relative fluorescence intensity of the substrate and product peaks was the parameter measured, reflecting enzyme activity. In the presence of an active compound, the ratio between product and substrate was altered. The signal of the product decreased, while the signal of the substrate increased. Capillary electrophoregrams (RDA acquisition files) were analyzed using HTS Well Analyzer software (available from Caliper Life Sciences, Waltham, MA).
Activity in each sample was determined as the product to sum ratio (PSR): P/(S+P), where P was the peak height of the product peptide and S was the peak height of the substrate peptide. For each compound, enzyme activity was measured at various concentrations (12 concentrations of compound spaced by 3× dilution intervals). Negative control samples (0% inhibition in the absence of an active compound) and positive control samples (100% inhibition, in the presence of 20 mM EDTA) were assembled in replicates of four and were used to calculate % inhibition values for each active compound at each concentration. Percent inhibition (Pinh) was determined using following equation: Pinh=(PSR0%−PSRinh)/(PSR0%−PSR100%)*100, where PSRinh was the product sum ratio in the presence of inhibitor, PSR0% was the average product sum ratio in the absence of active compound and PSR100% was the average product sum ratio in 100%-inhibition control samples.
The IC50 values of active compounds were determined by 4 parameter sigmoidal dose response model fitting of the inhibition curves (Pinh versus inhibitor concentration) using XLfit® 4 software (IDBS, Boston, MA). The IC50 values are reported in Table 2 in the BTK IC50 (nM) column.

[3] = target: His-tagged Cereblon/DDB1 complex (Homo sapiens (Human), UniProt Q96SW2); experiment: Cereblon Binding Assay (AlphaLISA Human Cereblon Binding Kit, competition); conditions: 10 μM top dose, biotin-labeled ligand competition; read-out: CRBN IC50
Experimental: Cereblon binding was measured in vitro using an AlphaLISA® Human Cereblon Binding Kit (PerkinElmer, Waltham, MA) according to the manufacturer's protocol (“Alpha” refers to Amplified Luminescent Proximity Homogeneous Assay). In this assay, donor beads and acceptor beads come into proximity through ligand binding to CRBN protein. Excitation of the donor beads provokes the release of singlet oxygen that triggers a cascade of energy transfer reactions to the acceptor beads, resulting in a sharp peak in light emission at 615 nm.
Specifically, nickel chelate acceptor beads (PerkinElmer AL108M) were used to capture a 6XHIS-tagged CRBN protein, and streptavidin-coated donor beads (PerkinElmer 6760002) were used to capture 50 nM biotinylated ligand. Each well included the following: sample or control; HIS-tagged CRBN protein; biotinylated ligand; nickel chelate acceptor beads; and streptavidin donor beads.
Competition Assay: Test compounds in 100% dimethyl sulfoxide were plated onto white, low volume 384 well plates (PerkinElmer Proxiplate 384 plus # 6008289) using an Labcyte Echo acoustic dispenser, in an 11-point dose curve and 3-fold dilution scheme. […] Plates were incubated for 30 minutes at room temperature.
Detection: 10 μL detection reagents were added in low light conditions containing nickel chelate acceptor beads and streptavidin donor beads (Perkin Elmer 6760002), resulting in a final concentration 20 ng/ml. Plates were incubated 1 hour and read on a PerkinElmerTM Envision™ plate reader (680 nm excitation and […] settings). The IC50 of each compound was determined by calculating percent inhibition from no drug and no protein controls, and the Ki of each compound was calculated using the Cheng-Prusoff transformation. From the IC50 values were determined. The IC50 values are reported in Table 2 in the CRBN IC50 (nM) column.

DC50 [1] [nM]	IC50 [2] [nM]	IC50 [3] [nM]	Structure (SMILES)
4.21	0.0986	≥ 10000	COC[C@H]1CN(CCc2ccc(N3CCC(=O)NC3=O)cc2)CCN1c1ccc(Nc2cc(-c3ccc([C@@H](C)NC(=O)c4nc(C(C)(C)C)no4)c(C)c3)ncn2)nc1 [Example 15, 3-tert-butyl-N-[(1R)-1-{4-[6-({5-[(2R)-4-{2-[4-(2,4-dioxo-1,3-diazinan-1-yl)phenyl]ethyl}-2-(methoxymethyl)piperazin-1-yl]pyridin-2-yl}amino)pyrimidin-4-yl]-2-methylphenyl}ethyl]-1,2,4-oxadiazole-5-carboxamide]
4.13	0.103	3870	C[C@@H](NC(=O)c1nc(C(C)(C)C)no1)c1ccc(-c2cc(Nc3ccc(N4CCN(CCc5ccc(N6CCC(=O)NC6=O)cc5)C[C@@H]4C)cn3)ncn2)cc1F [Example 17, 3-tert-butyl-N-[(1R)-1-{4-[6-({5-[(2S)-4-{2-[4-(2,4-dioxo-1,3-diazinan-1-yl)phenyl]ethyl}-2-methylpiperazin-1-yl]pyridin-2-yl}amino)pyrimidin-4-yl]-2-fluorophenyl}ethyl]-1,2,4-oxadiazole-5-carboxamide]
14.2	0.438	≥ 10000	C[C@@H](NC(=O)c1nc(C(C)(C)C)no1)c1ccc(-c2cc(Nc3ccc(N4CCN(CCc5ccc(N6CCC(=O)NC6=O)cc5)C[C@@H]4C)cn3)ncn2)cc1C(F)(F)F [Example 16, 3-tert-butyl-N-[(1R)-1-{4-[6-({5-[(2S)-4-{2-[4-(2,4-dioxo-1,3-diazinan-1-yl)phenyl]ethyl}-2-methylpiperazin-1-yl]pyridin-2-yl}amino)pyrimidin-4-yl]-2-(trifluoromethyl)phenyl}ethyl]-1,2,4-oxadiazole-5-carboxamide]

— patent US20240109877A1, “PYRIMIDINES FOR DEGRADING BRUTON'S TYROSINE KINASE” (AbbVie Inc., priority 2022, published 2024)
